Source: EP0120359A1, “Tetrahydrothiophenone derivative active in respiratory system affections” (YASON S.r.l, priority 1983, dated 1984)
Where two headings read alike, the source gives them in different places.

What was measured:
Sprague-Dawley rats = assay: Bronchosecretogogue activity, Mawatari test; format: in vivo; conditions: rat
Excerpt: The bronchosecretogogue activity of YS-869 was evalued by the test of Mawatari in Sprague-Dawley rats (Mawatari H. "Experimental Studies on the expectorant action of several drugs" - Kagoshima Daiga ken Igaken Zasshi. 27, 561, 1976), in comparison with known drugs.
This method consists in determinating the amount of […] eliminated with the fluid in the respiratory tract.

rat paw = assay: Antiinflammatory activity, carrageenin oedema in rat paw; format: in vivo; conditions: for Paw volume 2 h / Paw volume 4 h / Paw volume 6 h / Paw volume 8 h / Paw volume 24 h / Paw volume Basal: mean ± S.E.; for AREA % M±E.S.: area of the paw volume curve; for AREA Inhibition versus control: oedema inhibiting activity
Method: The antiinflammatory activity of YS-869 in comparison with acetylsalicylic acid was evaluated by the test of oedema induced by carrageening injection in rat paw (Winter, Rissly, Ness.; Proc. Soc. Exp. Biol. Med., Ill, 544-47 - 1962).

rats = format: in vivo; conditions: 200 mg/kg p.o.
Method: The gastro-injuring activity was determined by administering rats with equimolecular dosages of YS-869 and acetylsalicylic acid (252 mg/kg and 200 mg/kg respectively).

rabbit = assay: Antitussive activity, citric acid induced cough; format: in vivo
Excerpt: The antitussive activity of YS-869 was evalued by the citric acid test in the rabbit (Boura et al., Prog. Brit. Pharmac. Soc. Communications, April 1970), in comparison with codeine.
Such method consists in counting the coughs stro kes caused in the animal by the nebulization of a citric acid solution.

[1] = Solubility in organic solvents; conditions: common organic solvents

## Nc1c(Br)cc(Br)cc1CN[C@H]1CC[C@H](O)CC1 [AMBROXOL, Ambroxol]
Sprague-Dawley rats; 50 mg/kg i.p.
  Fl Na: 0.36 ± 0.037 µg/mL
  Fl Na % increase versus contr.: 28.6%

## CC(=O)Oc1ccccc1C(=O)O [Acetyl-salicy-lic acid, acetylsalicylic acid]
Rat paw; 200 mg/kg p.o.
  Paw volume 2 h: 43.5 ±1.5 ml/10
  Paw volume 4 h: 49.3 ±2.0 ml/10
  Paw volume 6 h: 51.4 ±1.7 ml/10
  Paw volume 8 h: 51.5 ±2.0 ml/10
  Paw volume 24 h: 42.8 ±1.7 ml/10
  AREA % M±E.S.: 151.38 ±13.1%
  Paw volume Basal: 36.1 ±1.1 ml/10
  AREA Inhibition versus control: 26.94%
rats
  ULCERS (gastric ulcers average size): 27.7±6.37 mm
rats; listed as acetylsalicylic acid
  ULCERS (gastric ulcers average size): 27.7 mm

## COc1ccc2c3c1O[C@H]1[C@@H](O)C=C[C@H]4[C@@H](C2)N(C)CC[C@@]341 [CODEINE, codeine]
rabbit; 25 mg/kg i.p.
  % inhibition versus control: 70.4%

## N[C@@H](CSCC(=O)O)C(=O)O [S-CARBOXY-METHYL-CY-STEINE, S-carboxymethyl-cysteine]
Sprague-Dawley rats; 500 mg/kg i.p.
  Fl Na: 0.41 ± 0.036 µg/mL
  Fl Na % increase versus contr.: 46.4%

## O=C(NC1CCSC1=O)c1cccs1 (stereo not drawn) [YS-869, N-(2-thenoyl)-N-(2-keto-2,3,4,5-tetrahydro-thiophene-3-yl)amine]
rabbit; 100 mg/kg i.p.
  % inhibition versus control: 21.5%
Sprague-Dawley rats; 500 mg/kg i.p.
  Fl Na: 0.42 ± 0.0450 µg/mL
Sprague-Dawley rats; 500 mg/kg i.p., 500 mg/kg
  Fl Na % increase versus contr.: 50%
Rat paw; 252 mg/kg p.o.
  Paw volume 2 h: 48.2 ±1.2 ml/10
  Paw volume 4 h: 54.1 ±2.3 ml/10
  Paw volume 6 h: 52.1 ±2.9 ml/10
  Paw volume 8 h: 51.4 ±2.5 ml/10
  Paw volume 24 h: 41 ±1.4 ml/10
  AREA % M±E.S.: 165.21 ±13.1%
  Paw volume Basal: 36.8 ±1.0 ml/10
  AREA Inhibition versus control: 20.26%
[1]
  solubility: soluble in common organic solvents
